Series [1] concerns Lewis rats. In words: Plasma insulin and glucagon during IPGTT. The series is classed as in vivo, rat. How it is done: The fasting blood glucose (BG) levels of the rats were measured using an Accu-Check blood glucose monitoring system (Roche Diagnostics, Sommerville, N.J.). IPGTT was performed in 6-hour fasting anaesthetized animals as previously described ([…], et al. 2001). Briefly, after baseline BG measurements, animals received an I.P. injection of 2 grams of glucose/kg body weight. To minimize stress during the procedure, rats were handled by the same operator during acclimatization and later during weighing and IPGTT. Blood samples (50 μl or 150 μl) were collected at baseline and then again 15, 30, 60, 90, and 120 minutes following I.P. injection of glucose. Blood glucose concentrations were measured immediately on these samples and the remainder processed. Plasma was immediately separated by centrifugation at 3,000×g for 15 minutes and then stored at -80° C. until analysis. Insulin and glucagon concentration measurements in rat plasma were performed by ELISA as per the manufacturer's instructions using kits from Linco Research Inc. (St. Charles, Mich.) and Alpco Diagnostics (Salem, N.H.), respectively. To validate the test, saline injections were performed by the same method. […] The area under the insulin, glucagon and IPGTT glucose concentration×time curve (AUC IPGTT) was calculated by the trapezoidal rule.

Series [2] relates to Lewis rats. In words: Intraperitoneal glucose tolerance test (IPGTT), blood glucose. Format: in vivo, rat. To be noted: for hypoglycemic activity in IPGTT (improvement of glucose tolerance): 2 mg/kg i.v., Lewis rats. How it is done: Rats were handled daily to minimize nonspecific stress for more than 7 days before the experiments began. In most experiments, it was necessary to measure blood glucose in fasting animals. For these groups, food was removed at the beginning of the light cycle, 6 hours before glucose levels were tested.
Sixty minutes prior to intraperitoneal glucose tolerance testing (IPGTT), anesthesia of male Lewis rats was induced with isoflurane (3-4% in oxygen) and maintained with 1-2% isoflurane in oxygen.
Anaesthetized rats were administered TBZ at the indicated dose by intravenous (i.v.) injection using the penile vein. […] Control rats received injections of vehicle alone (10% DMSO in Saline).
(§1) Animals were fully recovered for at least 30 minutes before receiving IPGTT. In specified experiments, L-DOPA was injected interperitoneal (I.P.) at the specified dose at the initiation of IPGTT. Abnormal glucose tolerance was induced by a single I.P. injection of streptozotocin (STZ) (Sigma Aldrich, St. Louis, Mo.) (50 mg/kg) to animals that had been fasted 4 hours to enhance the efficacy of STZ.
Blood samples were collected between 12:00 noon and 2:00 p.m. from a superficial blood vessel in the tails of the rats following 6 hours of fasting. The fasting blood glucose (BG) levels of the rats were measured using an Accu-Check blood glucose monitoring system (Roche Diagnostics, Sommerville, N.J.). IPGTT was performed in 6-hour fasting anaesthetized animals as previously described (Weksler-Zangen, et al. 2001). Briefly, after baseline BG measurements, animals received an I.P. injection of 2 grams of glucose/kg body weight. To minimize stress during the procedure, rats were handled by the same operator during acclimatization and later during weighing and IPGTT. Blood samples (50 μl or 150 μl) were collected at baseline and then again 15, 30, 60, 90, and 120 minutes following I.P. injection of glucose. Blood glucose concentrations were measured immediately on these samples and the remainder processed. Plasma was immediately separated by centrifugation at 3,000×g for 15 minutes and then stored at −80° C. until analysis.
Insulin and glucagon concentration measurements in rat plasma were performed by ELISA as per the manufacturer's instructions using kits from Linco Research Inc. (St. Charles, Mich.) and Alpco Diagnostics (Salem, N.H.), respectively. To validate the test, saline injections were performed by the same method. […] The area under the insulin, glucagon and IPGTT glucose concentration×time curve (AUC IPGTT) was calculated by the trapezoidal rule.

The subject of a further series is rats. To be noted: cited from earlier work.
The subject of another series is STZ treated rats. Put plainly: IPGTT and insulin in streptozotocin (STZ) treated rats. The series is classed as in vivo, rat. To be noted: TBZ 1.5 mg/Kg. The protocol:
as §1
STZ solution was prepared fresh by dissolving it in 0.1 M citrate buffer (pH 5.5) and terminally sterile filtered. Control Lewis age and weight matched rats received a 0.5 ml/kg citrate vehicle alone via intraperitoneal injection. […]
Blood samples were collected between 12:00 noon and 2:00 p.m. from a superficial blood vessel in the tails of the rats following 6 hours of fasting. The fasting blood glucose (BG) levels of the rats were measured using an Accu-Check blood glucose monitoring system (Roche Diagnostics, Sommerville, N.J.). […] Blood glucose concentrations were measured immediately on these samples and the remainder processed. […]
Insulin and glucagon concentration measurements in rat plasma were performed by ELISA as per the manufacturer's instructions using kits from Linco Research Inc. (St. Charles, Mich.) and Alpco Diagnostics (Salem, N.H.), respectively. […] The area under the insulin, glucagon and IPGTT glucose concentration×time curve (AUC IPGTT) was calculated by the trapezoidal rule.

For series [3] the following is noted: rats; cited from earlier work.
Another series deals with T1, VMAT1 (Homo sapiens, UniProt P54219).
T1 sequence (P54219 1-525): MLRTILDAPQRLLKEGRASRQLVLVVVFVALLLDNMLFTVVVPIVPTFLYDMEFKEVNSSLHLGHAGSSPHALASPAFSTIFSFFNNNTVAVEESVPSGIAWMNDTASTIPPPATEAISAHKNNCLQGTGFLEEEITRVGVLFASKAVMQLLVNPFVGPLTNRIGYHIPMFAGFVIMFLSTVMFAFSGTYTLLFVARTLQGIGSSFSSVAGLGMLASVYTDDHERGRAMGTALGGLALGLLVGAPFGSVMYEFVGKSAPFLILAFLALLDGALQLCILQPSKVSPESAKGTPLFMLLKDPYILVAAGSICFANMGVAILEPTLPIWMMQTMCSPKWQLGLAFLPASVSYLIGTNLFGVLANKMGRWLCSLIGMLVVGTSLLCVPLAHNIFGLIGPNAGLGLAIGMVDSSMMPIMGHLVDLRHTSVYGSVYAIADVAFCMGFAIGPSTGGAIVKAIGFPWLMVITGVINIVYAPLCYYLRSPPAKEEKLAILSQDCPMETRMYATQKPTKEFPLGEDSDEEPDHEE
To be noted: cited from earlier work.

For series [4], the system named is Lewis rats. Put plainly: Dopamine content of brain and pancreas tissue by ELISA after TBZ. The series is classed as in vivo, rat. Particulars: 1.5 mg/Kg i.v., one hour after injection. How it is done: Euthanasia was performed by exsanguination of the anesthetized animal. Brain and pancreas were harvested as quickly as possible and frozen at −80° C. until use. […] The tissue extract was centrifuged at 10,000×g at 4° C. to remove debris and the total protein was estimated by reading the absorbance at 280 nm.
(In general: ELISA stands for enzyme-linked immunosorbent assay.)

The target in series [5] is VMAT2 (Homo sapiens, UniProt Q05940). To be noted: cited from earlier work.
The next series has as its target T2, DPP-IV (Homo sapiens, UniProt P27487).
T2 construct: purchased BPS Bioscience, Inc. (San Diego, Calif.)
Put plainly: DPP profiling service (BPS Bioscience), in vitro. The series is classed as biochemical. To be noted: concentrations up to 10 μM. How it is done: The effect of DTBZ on DDP-IV was determined using the DPP profiling service from BPS Bioscience, Inc. (San Diego, Calif.).

In series [6] the target is T3, VMAT2 (Rattus norvegicus, UniProt Q01827).
T3 construct: endogenous in cells; host or cells: rat INS 832/13 insulinoma cells
In words: Fake Fluorescent Neurotransmitter (FFN) uptake high throughput assay in INS 832/13 cells. Format: cell-based. To be noted: one hour preincubation. The source says:
A high throughput (HTP) assay was developed to screen for compounds that interact with, e.g., bind to, VMAT2. The HTP exploits a class of compounds called Fake Fluorescent Neurotransmitters (FFN) that share the following characteristics a) low molecular weight and sufficiently hydrophilic to be water soluble; b) in aqueous buffer (pH 7), the excitation maxima is around 380-406 nm and the emission maxima is around 501 nm; and c) similar Kd for VMAT2 as dopamine. To validate the use of these compounds in beta cell lines (positive for VMAT2) the following set of experiments were performed.
The rat INS 832/13 cell line was selected because it secretes insulin in response to glucose concentrations in the physiological range and can be shown to contain VMAT2 by PCR. […] INS cells were grown on cover slips in normal media, then pretreated with and without DTBZ in low glucose media for one hour and then loaded with FFN (GH206). The distribution of fluorescent dye was then examined under a fluorescent microscope. The FFN distributes itself intracellularly in a punctate pattern similar, if not identical, to insulin containing granules of this cell line (data not shown). […] For better quantitation of the fluorescent signal, the cells were grown in […] and the same experiment substantially repeated. Briefly, cells were grown to confluence in complete high glucose media, then incubated for one hour in low glucose media. DTBZ was then added to the wells for one hour, followed with a second one hour incubation with FFN. Wells were then washed and the fluorescent signal (380 exc, 512 emm) measured in a multiwell fluorometer (Synergy HT Multi-Mode Microplate Reader).

Another series deals with purified rat islets. In words: Static glucose stimulated insulin secretion in purified islets. Format: cell-based. Particulars: 100 nM DTBZ. How it is done: Rat pancreas digestion, islet isolations, and static insulin secretion assays were performed as previously described (Niswender et al. 2005; Sweet, et al. 2004; Sweet and Gilbert 2006). Purified islets were cultured in RPMI 1640 culture media with 10% fetal bovine serum at 37° C. in humidified air (5% CO2) for 18 to 24 hours. Assessment of insulin secretion in static media was carried out as follows. Islets were handpicked twice into a Petri dishes containing Krebs-Ringer bicarbonate (KRB) buffer (with 3 mM glucose and 0.1% BSA) and pre-incubated for 60 minutes (37° C. and 5% CO2). Subsequently, batches of 100 islets (in quadruplicate) were transferred into 96-well plates containing 200 μl of KRB with either 3 or 20 mM glucose, with or without 100 nM DTBZ and incubated for 60 minutes. The supernatant was removed and the insulin was measured using ELISA (ALPCO, Windham, N.H.).

VMAT2 (Homo sapiens, UniProt Q05940), sequence (Q05940 whole entry): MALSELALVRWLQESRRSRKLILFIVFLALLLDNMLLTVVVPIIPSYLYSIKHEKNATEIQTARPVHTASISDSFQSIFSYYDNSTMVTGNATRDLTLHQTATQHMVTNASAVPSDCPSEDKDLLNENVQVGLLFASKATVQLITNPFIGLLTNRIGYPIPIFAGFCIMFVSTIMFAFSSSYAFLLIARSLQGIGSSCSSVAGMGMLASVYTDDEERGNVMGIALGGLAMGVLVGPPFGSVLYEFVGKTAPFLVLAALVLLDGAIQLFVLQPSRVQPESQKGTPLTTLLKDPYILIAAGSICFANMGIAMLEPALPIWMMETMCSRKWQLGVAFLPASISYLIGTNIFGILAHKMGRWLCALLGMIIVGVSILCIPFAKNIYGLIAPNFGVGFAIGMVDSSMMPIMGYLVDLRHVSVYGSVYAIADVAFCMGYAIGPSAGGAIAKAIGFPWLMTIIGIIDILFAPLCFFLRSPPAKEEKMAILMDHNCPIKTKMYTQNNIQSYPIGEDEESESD
T2 sequence (P27487 whole entry, species assumed): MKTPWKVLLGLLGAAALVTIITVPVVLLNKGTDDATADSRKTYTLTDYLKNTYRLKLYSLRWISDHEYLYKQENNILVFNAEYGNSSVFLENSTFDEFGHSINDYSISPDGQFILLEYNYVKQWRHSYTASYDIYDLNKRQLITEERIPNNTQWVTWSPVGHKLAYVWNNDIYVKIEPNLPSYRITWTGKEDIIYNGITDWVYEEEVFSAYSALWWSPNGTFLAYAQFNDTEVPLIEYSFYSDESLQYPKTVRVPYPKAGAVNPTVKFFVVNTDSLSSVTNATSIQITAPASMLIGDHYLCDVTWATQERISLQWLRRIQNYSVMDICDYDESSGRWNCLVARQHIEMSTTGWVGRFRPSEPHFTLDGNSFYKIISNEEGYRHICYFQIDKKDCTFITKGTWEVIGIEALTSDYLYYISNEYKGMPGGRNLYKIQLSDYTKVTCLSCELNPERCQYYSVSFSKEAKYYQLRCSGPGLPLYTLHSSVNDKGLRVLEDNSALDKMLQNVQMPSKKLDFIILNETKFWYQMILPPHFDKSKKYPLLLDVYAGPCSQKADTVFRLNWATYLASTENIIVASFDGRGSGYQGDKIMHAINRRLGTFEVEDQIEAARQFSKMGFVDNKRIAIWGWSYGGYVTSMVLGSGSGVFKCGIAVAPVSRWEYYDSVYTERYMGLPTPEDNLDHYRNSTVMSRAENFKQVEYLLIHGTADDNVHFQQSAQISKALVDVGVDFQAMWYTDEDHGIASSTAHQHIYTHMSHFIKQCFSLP
T3 sequence (Q01827 whole entry): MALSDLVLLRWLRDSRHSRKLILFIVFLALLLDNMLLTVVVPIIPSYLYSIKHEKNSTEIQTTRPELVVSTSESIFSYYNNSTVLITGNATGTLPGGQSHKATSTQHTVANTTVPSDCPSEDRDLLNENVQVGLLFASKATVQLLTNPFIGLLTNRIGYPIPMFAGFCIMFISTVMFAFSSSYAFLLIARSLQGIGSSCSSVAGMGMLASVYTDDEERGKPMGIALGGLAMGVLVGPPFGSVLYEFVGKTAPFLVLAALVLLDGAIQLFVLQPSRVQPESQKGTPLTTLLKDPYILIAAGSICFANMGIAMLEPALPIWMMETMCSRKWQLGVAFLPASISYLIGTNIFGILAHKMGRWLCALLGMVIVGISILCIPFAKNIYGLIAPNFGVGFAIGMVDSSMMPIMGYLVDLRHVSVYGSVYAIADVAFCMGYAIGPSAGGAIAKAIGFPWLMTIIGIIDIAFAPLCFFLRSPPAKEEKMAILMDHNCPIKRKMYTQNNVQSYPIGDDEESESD

Regarding `NCCc1ccc(O)c(O)c1` [dopamine], the “effect on insulin enhancement by TBZ” value in the series on Lewis rats [1] (dopamine i.v. at the same time as glucose) was “partially blocked the insulin enhancing effects of TBZ”.
On to `N[C@@H](Cc1ccc(O)c(O)c1)C(=O)O` [L-DOPA, L-3,4-dihydroxyphenylalanine], for which the “effect on TBZ-lowered AUC IPGTT” value in the series on Lewis rats [2] (L-DOPA 6.0 mg/Kg I.P., one hour after TBZ, concurrent with glucose) was “reverse the effects of TBZ”.
`COC1=CC(=O)N2CCc3cc(OC)c(OC)cc3C2C1` (stereo not drawn) [compound 15]: the “hypoglycemic activity in IPGTT (improvement of glucose tolerance)” value in the series on Lewis rats [2] is reported as “active but less potent”.
Same read-out and setting: as for `COc1ccc(C2CC(O)C(CC(C)C)CN2)cc1OC` (racemic) [compound 1], the entry is “less potent than TBZ”.
For `COc1cc2c(cc1OC)C1CC(=O)C(CC(C)C)CN1CC2` (stereo not drawn) [TBZ, tetrabenazine], in the series with rats, the “reduction of dopamine levels in the brain” value was 40%, the “reduction of norepinephrine levels in the brain” value is given as 41% and the “reduction of serotonin levels in the brain” value is reported as 44%. Also, the AUC plasma glucagon entry in the series with Lewis rats [1] (i.v. TBZ and glucose challenge) is reported as “lower relative to controls”. Moreover, the “AUC IPGTT” value in the series with STZ treated rats (STZ treated rats) is “decreased”. Besides, in the series on STZ treated rats (STZ treated rats which maintained glucose dependant insulin secretion), the “increase of AUC insulin” value is 50%-80%. Moreover, the “plasma elimination half life, t1/2” value in series [3] is 2 h. For the same compound, the “reduced affinity towards VMAT1 versus VMAT2” value on VMAT1 is on record as “more than 10,000 fold”. Besides, the “dopamine content of brain” value with Lewis rats [4] was “significantly reduced”. For the same compound, the “reduction of glucose excursion (AUC IPGTT)” value in the series with Lewis rats [2] (2.25 μg/gm body weight i.v., older male Lewis rats >11 weeks) is reported as “approximately 35%”. Moreover, the “decrease of AUC IPGTT” value with Lewis rats [2] (2 mg/kg i.v. 30 minutes before glucose 2 g/kg I.P.) came out at 26%. Moreover, the “baseline fasting glucose concentration versus control animals” value in the series with Lewis rats [2] (about 1 hour after TBZ, before glucose challenge) is recorded as “no reproducible differences”. Further, the “AUC IPGTT” value with Lewis rats [2] (chronic administration, approximately 0.1 mg/Kg body weight for five days) is recorded as “suppressed the AUC IPGTT in a fashion similar to the single high dose”. For the same compound, in the series with Lewis rats [2] (doses higher than 5.0 mg/Kg), the “AUC IPGTT” value was “increasingly variable, often surpassing that of control levels”. Besides, the “glucose tolerance enhancing effect (AUC IPGTT)” value in the series on Lewis rats [2] (doses lower than 0.3 mg/Kg) was “undetectable”. The dissociation constant entry on VMAT2 [5] is given as “nanomolar range”.
Consider `COc1cc2c(cc1OC)[C@H]1C[C@@H](O)[C@H](CC(C)C)CN1CC2` [DTBZ, dihydrotetrabenazine], for which the “effect on DPP-IV” value on DPP-IV is recorded as “no effect”. In addition, the “block of FFN uptake/transport” value on VMAT2 [6] is listed as “able to block uptake of FFN”. For the same compound, the “enhancement of glucose stimulated insulin secretion” value with purified rat islets (high glucose (20 mM), 60 minutes) is recorded as “two to three fold”. Moreover, the “increase in insulin secretion” value in the series with purified rat islets (low glucose (3 mM)) is recorded as “not statistically significant”.
